Measured values as given in patent US12077503B2, “Substituted cyclic amides and their use as herbicides” (FMC CORPORATION, priority 2015, dated 2024).

Experiments:
Format in all cases: in vivo
[1] = system: barnyardgrass (Echinochloa crus-galli); test: Test B flooded paddy test; settings: Echinochloa crus-galli, 250 g ai/ha, Flood; 0 to 100 scale where 0 is no effect and 100 is complete control; read-out: Barnyardgrass plant response rating
Outline: (§1)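 Flooding to 3 cm over soil accompanied treatment, which consisted of adding compound to the standing water around 2-leaf plants; depth was then maintained. Visual assessment versus controls followed at 13 to 15 d (scale 0–100, 0 meaning no effect).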

[2] = system: rice (Oryra sativa); test: Test B flooded paddy test; settings: Oryza sativa, 250 g ai/ha, Flood; 0 to 100 scale where 0 is no effect and 100 is complete control; read-out: Rice plant response rating
Outline: as §1

[3] = system: ducksalad (Heteranthera limosa); test: Test B flooded paddy test; settings: Heteranthera limosa, 250 g ai/ha, Flood; 0 to 100 scale where 0 is no effect and 100 is complete control; read-out: Ducksalad plant response rating
Outline: as §1

[4] = system: sedge, umbrella (small-flower umbrella sedge, Cyperus difformis); test: Test B flooded paddy test; settings: Cyperus difformis, 250 g ai/ha, Flood; 0 to 100 scale where 0 is no effect and 100 is complete control; read-out: Sedge, Umbrella plant response rating
Outline: as §1

[5] = system: barnyardgrass (Echinochloa crus-galli); test: Test A preemergence; settings: Echinochloa crus-galli, pre-emergence, 240 h, 0 to 100 scale where 0 is no effect and 100 is complete control, read-out: Barnyardgrass plant response rating
Outline: (§2)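 Preemergence directed soil spray on seeded pots, or postemergence application to plants 2–10 cm, one- to two-leaf. Solvent mixture non-phytotoxic, with surfactant. Scored ~10 d later, visually, 0–100 vs untreated.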

[6] = system: ryegrass, Italian (Italian ryegrass, Lolium multiflorum); test: Test A preemergence; settings: Lolium multiflorum, pre-emergence, 240 h, 0 to 100 scale where 0 is no effect and 100 is complete control, read-out: Ryegrass, Italian plant response rating
Outline: as §2

[7] = system: giant foxtail (Setaria faberii); test: Test A preemergence; settings: Setaria faberi, pre-emergence, 240 h, 0 to 100 scale where 0 is no effect and 100 is complete control, read-out: Foxtail, Giant plant response rating
Outline: as §2

[8] = system: ragweed (common ragweed, Ambrosia elatior); test: Test A preemergence; settings: Ambrosia artemisiifolia, pre-emergence, 240 h, 0 to 100 scale where 0 is no effect and 100 is complete control, read-out: Ragweed plant response rating
Outline: as §2

[9] = system: pigweed (Amaranthus retroflexus); test: Test A preemergence; settings: Amaranthus retroflexus, pre-emergence, 240 h, 0 to 100 scale where 0 is no effect and 100 is complete control, read-out: Pigweed plant response rating
[10] = system: Kochia (Kochia scoparia); test: Test A preemergence; settings: Bassia scoparia, pre-emergence, 240 h, 0 to 100 scale where 0 is no effect and 100 is complete control, read-out: Kochia plant response rating
Outline: as §2

[11] = system: barnyardgrass (Echinochloa crus-galli); test: Test A postemergence; settings: Echinochloa crus-galli, post-emergence, 240 h
Outline: as §2

[12] = system: ryegrass, Italian (Italian ryegrass, Lolium multiflorum); test: Test A postemergence; settings: Lolium multiflorum, post-emergence, 240 h
Outline: as §2

[13] = system: giant foxtail (Setaria faberii); test: Test A postemergence; settings: Setaria faberi, post-emergence, 240 h
Outline: as §2

[14] = system: wheat (Triticum aestivum); test: Test A postemergence; settings: Triticum aestivum, post-emergence, 240 h
Outline: as §2

[15] = system: corn (Zea mays); test: Test A postemergence; settings: Zea mays, post-emergence, 240 h
Outline: as §2

[16] = system: ragweed (common ragweed, Ambrosia elatior); test: Test A postemergence; settings: Ambrosia artemisiifolia, post-emergence, 240 h
Outline: as §2

[17] = system: pigweed (Amaranthus retroflexus); test: Test A postemergence; settings: Amaranthus retroflexus, post-emergence, 240 h
Outline: as §2

[18] = system: Kochia (Kochia scoparia); test: Test A postemergence; settings: Bassia scoparia, post-emergence, 240 h
Outline: as §2

[19] = system: blackgrass (Alopecurus myosuroides); test: Test A postemergence; settings: Alopecurus myosuroides, post-emergence, 240 h
Outline: as §2

[20] = 125 g ai/ha, preemergence, approx. 10 d

CC(C)Oc1cc([C@H]2CN(C)C(=O)[C@@H]2C(=O)Nc2cccc(F)c2F)ccc1F [Compound 1075]
pest or weed control at 250 g/ha [1]: 75%
pest or weed control at 250 g/ha [2]: 35%
pest or weed control at 250 g/ha [3]: 100%
pest or weed control at 250 g/ha [4]: 0%
pest or weed control at 31 g/ha ([5]; 31 g ai/ha, Preemergence): 100%
pest or weed control at 125 g/ha [5, 20]: 100%
pest or weed control at 31 g/ha ([6]; 31 g ai/ha, Preemergence): 50%
pest or weed control at 125 g/ha [6, 20]: 80%
pest or weed control at 31 g/ha ([7]; 31 g ai/ha, Preemergence): 100%
pest or weed control at 125 g/ha [7, 20]: 100%
pest or weed control at 31 g/ha ([8]; 31 g ai/ha, Preemergence): 30%
pest or weed control at 125 g/ha [8, 20]: 20%
pest or weed control at 31 g/ha ([9]; 31 g ai/ha, Preemergence): 0%
pest or weed control at 125 g/ha [9, 20]: 20%
pest or weed control at 31 g/ha ([10]; 31 g ai/ha, Preemergence): 0%
pest or weed control at 125 g/ha [10, 20]: 30%
pest or weed control at 125 g/ha ([11]; 125 g ai/ha, postemergence, visual injury on 0 to 100 scale (0 no effect, 100 complete control), approx. 10 d, read-out: Barnyardgrass plant response rating): 90%
pest or weed control at 31 g/ha ([11]; Postemergence, 31 g ai/ha, visual injury after approx. 10 d, 0 to 100 scale, 0 no effect, 100 complete control, read-out: Plant response rating, Barnyardgrass): 90%
pest or weed control at 125 g/ha ([12]; 125 g ai/ha, postemergence, visual injury on 0 to 100 scale (0 no effect, 100 complete control), approx. 10 d, read-out: Ryegrass, Italian plant response rating): 70%
pest or weed control at 31 g/ha ([12]; Postemergence, 31 g ai/ha, visual injury after approx. 10 d, 0 to 100 scale, 0 no effect, 100 complete control, read-out: Plant response rating, Ryegrass, Italian): 0%
pest or weed control at 125 g/ha ([13]; 125 g ai/ha, postemergence, visual injury on 0 to 100 scale (0 no effect, 100 complete control), approx. 10 d, read-out: Foxtail, Giant plant response rating): 90%
pest or weed control at 31 g/ha ([13]; Postemergence, 31 g ai/ha, visual injury after approx. 10 d, 0 to 100 scale, 0 no effect, 100 complete control, read-out: Plant response rating, Foxtail, Giant): 80%
plant injury at 125 g/ha ([14]; 125 g ai/ha, postemergence, visual injury on 0 to 100 scale (0 no effect, 100 complete control), approx. 10 d, read-out: Wheat plant response rating): 60%
plant injury at 31 g/ha ([14]; Postemergence, 31 g ai/ha, visual injury after approx. 10 d, 0 to 100 scale, 0 no effect, 100 complete control, read-out: Plant response rating, Wheat): 0%
plant injury at 125 g/ha ([15]; 125 g ai/ha, postemergence, visual injury on 0 to 100 scale (0 no effect, 100 complete control), approx. 10 d, read-out: Corn plant response rating): 70%
Corn plant response rating (crop injury, 0 = no effect, 100 = complete kill) at 31 g/ha ([15]; Postemergence, 31 g ai/ha, visual injury after approx. 10 d, 0 to 100 scale, 0 no effect, 100 complete control): 20%
pest or weed control at 125 g/ha ([16]; 125 g ai/ha, postemergence, visual injury on 0 to 100 scale (0 no effect, 100 complete control), approx. 10 d, read-out: Ragweed plant response rating): 40%
pest or weed control at 31 g/ha ([16]; Postemergence, 31 g ai/ha, visual injury after approx. 10 d, 0 to 100 scale, 0 no effect, 100 complete control, read-out: Plant response rating, Ragweed): 0%
pest or weed control at 125 g/ha ([17]; 125 g ai/ha, postemergence, visual injury on 0 to 100 scale (0 no effect, 100 complete control), approx. 10 d, read-out: Pigweed plant response rating): 0%
pest or weed control at 31 g/ha ([17]; Postemergence, 31 g ai/ha, visual injury after approx. 10 d, 0 to 100 scale, 0 no effect, 100 complete control, read-out: Plant response rating, Pigweed): 0%
pest or weed control at 125 g/ha ([18]; 125 g ai/ha, postemergence, visual injury on 0 to 100 scale (0 no effect, 100 complete control), approx. 10 d, read-out: Kochia plant response rating): 30%
pest or weed control at 31 g/ha ([18]; Postemergence, 31 g ai/ha, visual injury after approx. 10 d, 0 to 100 scale, 0 no effect, 100 complete control, read-out: Plant response rating, Kochia): 30%
pest or weed control at 125 g/ha ([19]; 125 g ai/ha, postemergence, visual injury on 0 to 100 scale (0 no effect, 100 complete control), approx. 10 d, read-out: Blackgrass plant response rating): 50%
pest or weed control at 31 g/ha ([19]; Postemergence, 31 g ai/ha, visual injury after approx. 10 d, 0 to 100 scale, 0 no effect, 100 complete control, read-out: Plant response rating, Blackgrass): 40%
